Measured values reported in PMC9953885 (Biosensors, 2023).
Counter-ions that a name gives are not always drawn.

How the values were obtained:
[1] = molecular target: T1, human pancreatic lipase (hPL) (Homo sapiens, UniProt P16233); experiment: Michaelis-Menten kinetics of fluorogenic substrate hydrolysis (Km); type: biochemical
T1 construct: gene PNLIP
T1 sequence (P16233 17-465): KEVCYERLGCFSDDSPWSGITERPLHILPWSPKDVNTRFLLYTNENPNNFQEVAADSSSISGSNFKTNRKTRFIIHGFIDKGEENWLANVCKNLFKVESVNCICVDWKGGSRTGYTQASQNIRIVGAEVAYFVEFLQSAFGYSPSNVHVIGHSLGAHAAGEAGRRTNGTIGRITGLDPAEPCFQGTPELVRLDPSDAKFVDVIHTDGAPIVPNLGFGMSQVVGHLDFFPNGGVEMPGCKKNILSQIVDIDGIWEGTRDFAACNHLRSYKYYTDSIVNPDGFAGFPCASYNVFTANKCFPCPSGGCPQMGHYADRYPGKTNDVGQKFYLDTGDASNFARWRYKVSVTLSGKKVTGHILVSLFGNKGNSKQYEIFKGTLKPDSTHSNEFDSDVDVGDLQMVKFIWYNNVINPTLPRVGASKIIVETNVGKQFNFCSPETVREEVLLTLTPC

[2] = molecular target: T1, human pancreatic lipase (hPL); settings: 10 µM; inhibitor
[3] = molecular target: T1, human pancreatic lipase (hPL); experiment: RLE-based fluorescence hydrolysis assay, dose-inhibition; type: biochemical

Row | Compound | Km [1] | % of control remaining [2] | IC50 [3]
1 | CCCCCCCCCCCC(=O)Oc1ccc2nc3ccc(=O)cc-3oc2c1 [RLE, 3-oxo-3H-phenoxazin-7-yl dodecanoate] | 10.4 µM |  | 
2 | O=C(c1ccc(OCCN2CCCCC2)cc1)c1c(-c2ccc(O)cc2)sc2cc(O)ccc12 [d1, raloxifene] |  | 4.05% | 5.63 µM
3 | CNC(=O)c1cc(Oc2ccc(NC(=O)Nc3ccc(Cl)c(C(F)(F)F)c3)cc2)ccn1 [f1, sorafenib tosylate] |  | 44.04% | 15.6 µM
4 | CC(C)c1cc2c(c(O)c1O)[C@@]13CCCC(C)(C)[C@@H]1C[C@@H]2OC3=O [h9, carnosol] |  | 4.20% | 0.58 µM
5 | COc1ccc(-c2cc(=O)c3c(O)cc(O)c(-c4cc(-c5cc(=O)c6c(O)cc(OC)cc6o5)ccc4OC)c3o2)cc1 [h10, sciadopitysin] |  | 5.25% | 1.36 µM
6 | O=C(O)/C=C/c1ccccc1 [trans-Cinnamic acid] |  | 72.50% | 
